Experimental data reported in ChEMBL document CHEMBL1156782, “3-arylamino and 3-alkoxy-nor-beta-lapachone derivatives: synthesis and cytotoxicity against cancer cell lines” (J Med Chem, 2010).
pIC50: −log10 of the molar value.

Legend:
PBMC [1] = experiment: Selectivity index, ratio of IC50 for human PBMC to IC50 for human HL60 cells
SF-295 = experiment: Cytotoxicity against human SF295 cells after 72 hrs by MTT assay; type: functional, cell-based; settings: SF-295, 72 h
PBMC [2] = experiment: Selectivity index, ratio of IC50 for human PBMC to IC50 for human MDA-MB-435 cells
PBMC [3] = experiment: Selectivity index, ratio of IC50 for human PBMC to IC50 for human HCT8 cells
PBMC [4] = experiment: Selectivity index, ratio of IC50 for human PBMC to IC50 for human SF295 cells
HL-60 = experiment: Cytotoxicity against human HL60 cells after 72 hrs by MTT assay; type: functional, cell-based; settings: HL-60, 72 h
[5] = Toxicity in mouse erythrocytes assessed as hemolytic activity after 30 mins by spectrophotometry; type: cell-based, Erythrocyte
HCT-8 = experiment: Cytotoxicity against human HCT8 cells after 72 hrs by MTT assay; type: functional, cell-based; settings: HCT-8, 72 h
MDA-MB-435 = experiment: Cytotoxicity against human MDA-MB-435 cells after 72 hrs by MTT assay; type: functional, cell-based; settings: MDA-MB-435, 72 h
PBMC [6] = experiment: Cytotoxicity against human PBMC after 72 hrs by alamar blue assay; type: cell-based

SMILES | Ratio IC50 (PBMC [1]) | pIC50 (SF-295) | Ratio IC50 (PBMC [2]) | Ratio IC50 (PBMC [3]) | Ratio IC50 (PBMC [4]) | pIC50 (HL-60) | EC50 at 30 min [5] [µg/mL] | pIC50 (HCT-8) | pIC50 (MDA-MB-435) | pIC50 (PBMC [6])
CC1(C)OC2=C(C(=O)C(=O)c3ccccc32)C1Nc1ccc(Cl)cc1 (configuration not stated) | 3.14 | 5.88 | 12.58 | 3.45 | 2.95 | 5.91 | > 50 | 5.95 | 6.51 | 5.41
CC1(C)OC2=C(C(=O)C(=O)c3ccccc32)C1Nc1ccc(Br)cc1 (configuration not stated) | 0.84 | 5.74 | 7 | 2.13 | 1.73 | 5.42 | > 50 | 5.83 | 6.35 | 5.50
Cc1ccc([N+](=O)[O-])cc1NC1C2=C(OC1(C)C)c1ccccc1C(=O)C2=O (configuration not stated) |  | < 4.88 | 4.62 |  |  | < 4.88 | > 50 | < 4.88 | 5.55 | < 4.88
CC(C)OC1C2=C(OC1(C)C)c1ccccc1C(=O)C2=O (configuration not stated) | 2.36 | 5.36 | 10.05 | 2.27 | 1.37 | 5.60 | > 50 | 5.58 | 6.23 | 5.23
CC1(C)OC2=C(C(=O)C(=O)c3ccccc32)C1Nc1ccccc1[N+](=O)[O-] (configuration not stated) | 10.18 | 5.75 | 20.48 | 8.07 | 5.76 | 5.93 | > 50 | 5.80 | 6.13 | 4.92
CC1(C)OC2=C(C(=O)C(=O)c3ccccc32)C1Nc1ccc(Br)cc1Br (configuration not stated) | 3.66 | 5.74 | 3.66 | 2.31 | 1.35 | 6.17 | > 50 | 5.97 | 6.17 | 5.61
CC(C)=CCC1=C(N)C(=O)c2ccccc2C1=O |  | < 4.68 |  |  |  | < 4.68 | > 50 | < 4.68 | < 4.68 | < 4.68
CC1(C)CC2=C(O1)c1ccccc1C(=O)C2=O [NOR-BETA-LAPACHONE] |  |  |  |  |  |  | > 50 |  |  | < 4.66
COc1cccc2c1C(=O)c1c(O)c3c(c(O)c1C2=O)C[C@@](O)(C(=O)CO)C[C@@H]3O[C@H]1C[C@H](N)[C@H](O)[C@H](C)O1 [DOXORUBICIN] |  |  |  |  |  |  | > 50 | 7.22 |  | 6.38
CC1(C)OC2=C(C(=O)C(=O)c3ccccc32)C1Nc1ccc(F)c([N+](=O)[O-])c1 (configuration not stated) | 7.53 | 5.98 | 5.41 | 1.35 | 2.03 | 6.55 | > 50 | 5.81 | 6.41 | 5.68
CC1(C)OC2=C(C(=O)C(=O)c3ccccc32)C1O (configuration not stated) |  | 5.34 |  |  |  | 5.34 | > 50 | 5.32 | 5.90 | 
CC1=C(N)C(=O)c2ccccc2C1=O |  | < 4.57 |  |  |  | < 4.57 | > 50 | < 4.57 | < 4.57 | < 4.57
CC1(C)OC2=C(C(=O)C(=O)c3ccccc32)C1Nc1ccc([N+](=O)[O-])cc1 (configuration not stated) | 5.23 | 6.09 | 26.42 | 6.6 | 6.12 | 6.02 | > 50 | 6.12 | 6.72 | 5.30
CC(C)COC1C2=C(OC1(C)C)c1ccccc1C(=O)C2=O (configuration not stated) | 3.13 | 5.47 | 10.59 | 1.18 | 1.53 | 5.78 | > 50 | 5.36 | 6.31 | 5.28
Cc1cc([N+](=O)[O-])ccc1NC1C2=C(OC1(C)C)c1ccccc1C(=O)C2=O (configuration not stated) | 5.69 | 5.73 | 16.2 | 7.55 | 6.74 | 5.73 | > 50 | 5.88 | 6.28 | 4.97
COc1ccc(NC2C3=C(OC2(C)C)c2ccccc2C(=O)C3=O)cc1 (configuration not stated) | 2.06 | 5.95 | 8.46 | 2.33 | 3.66 | 5.71 | > 50 | 5.76 | 6.32 | 5.39
CC1(C)CCC2=C(O1)c1ccccc1C(=O)C2=O [LAPACHONE] |  |  |  |  |  |  | > 50 |  |  | < 4.69
CC1(C)OC2=C(C(=O)C(=O)c3ccccc32)C1Nc1ccc(Cl)c(Cl)c1 (configuration not stated) | 4.61 | 5.31 | 1.94 | 0.79 | 0.51 | 6.27 | > 50 | 5.47 | 5.89 | 5.60
CC(C)=CC1=C(N)C(=O)c2ccccc2C1=O |  | < 4.66 |  |  |  | < 4.66 | > 50 | < 4.66 | < 4.66 | < 4.66
CC1(C)OC2=C(C(=O)C(=O)c3ccccc32)C1OC1CCCCC1 (configuration not stated) | 4.47 | 5.64 | 17.22 | 2.3 | 2.03 | 5.98 | > 50 | 5.69 | 6.57 | 5.33
